Assay results taken from patent US20030003139A1 (Schering AG, priority 2000, published 2003).
Values belong to the compound of their own block, whether it stands above or below them.

Columns and labels:
[1] = in-vitro-diffusion test, Franz-flow cell, transdermal in-vitro skin flow from patches; type: in vitro ADME, mice; details: for transdermal in-vitro skin flow / transdermal in-vitro skin flow, MW (mean value): gestodene patch 1% by weight; for transdermal in-vitro skin flow, MW (mean value): mean of cells
Source text: The measurements were made with the following in-vitro-diffusion test. A tempered Franz-flow cell is divided into a donor compartment and an acceptor compartment by a 2 cm^2 piece of excised skin from nude mice, whereby the horny layer faces toward the donor. A 3% or 5% solution of hydroxypropyl-β-cyclodextrin in buffer is pumped with the aid of a pneumatic pump from a tempered storage container through the acceptor compartment and collected with the aid of a fraction collector in glass vials that are exchanged at specific time intervals.
The active ingredient-containing patches are bonded to the donor side.
The content of active ingredients is determined in the individual fractions by means of HPLC/UV or GC/FID.
The transdermal in-vitro skin flow is indicated in ng/cm^2/h: […]

[2] = solubility (crystal-free loadability) of the active ingredient in polyacrylate matrix-TDS according to Example 1; type: physicochemical; details: for content up to which active ingredient is present in dissolved form in matrix-TDS: matrix-TDS according to Example 1
Description: Hydroxytrienedione is weighed in a beaker and with 25 g of a 30% solution of Kollidon^(R) VA 64 in 2-propanol. 10 ml of 2-propanol is added. The mixture that is obtained is stirred for 5 minutes. The mixture is fed into the adhesive solution (Gelva 7881) that is introduced. The following table indicates the adhesive dry mass that is contained in the introduced volume of the adhesive solution. Then, it is stirred for another 0.5 hour. After polarization-microscopic checking to ensure the absence of crystals, the mixture that is obtained is coated by means of a 300 μm doctor blade on a liner that consists of fluoropolymer-coated polyester (Scotchpak^(R) 1022 Release Liner). It is dried for 20 minutes at 70° C. and then laminated with a backing that consists of a co-laminate of PVC-PVDS with polyester (Saran-Hytrel^(R) backing). Round patches with a surface area of 10 cm^2 are punched from the three-layer laminate that is obtained and welded into a sealed bag that is made of aluminum compound foil.
A matrix-TDS, in which the active ingredient is present in dissolved form, can be produced according to Example 1 with gestodene only up to about 1% (m/m). Moreover, it results in recrystallization phenomena of the gestodene. The skin flow cannot increase decisively.

[3] = formulations for transdermal systems; cited from earlier work

transdermal in-vitro skin flow ([1]; 1 h, diffusion cell 1): 0 ng/cm^2/h
transdermal in-vitro skin flow ([1]; 1 h, diffusion cell 2): 0 ng/cm^2/h
transdermal in-vitro skin flow ([1]; 1 h, diffusion cell 3): 0 ng/cm^2/h
transdermal in-vitro skin flow ([1]; 1 h, diffusion cell 4): 0 ng/cm^2/h
transdermal in-vitro skin flow, MW (mean value) ([1]; 1 h): 0 ng/cm^2/h
transdermal in-vitro skin flow ([1]; 3 h, diffusion cell 1): 1 ng/cm^2/h
transdermal in-vitro skin flow ([1]; 3 h, diffusion cell 2): 4 ng/cm^2/h
transdermal in-vitro skin flow ([1]; 3 h, diffusion cell 3): 2 ng/cm^2/h
transdermal in-vitro skin flow ([1]; 3 h, diffusion cell 4): 5 ng/cm^2/h
transdermal in-vitro skin flow, MW (mean value) ([1]; 3 h): 3 ng/cm^2/h
transdermal in-vitro skin flow ([1]; 5 h, diffusion cell 1): 5 ng/cm^2/h
transdermal in-vitro skin flow ([1]; 5 h, diffusion cell 2): 31 ng/cm^2/h
transdermal in-vitro skin flow ([1]; 5 h, diffusion cell 3): 14 ng/cm^2/h
transdermal in-vitro skin flow ([1]; 5 h, diffusion cell 4): 18 ng/cm^2/h
transdermal in-vitro skin flow, MW (mean value) ([1]; 5 h): 17 ng/cm^2/h
transdermal in-vitro skin flow ([1]; 10 h, diffusion cell 1): 39 ng/cm^2/h
transdermal in-vitro skin flow ([1]; 10 h, diffusion cell 2): 72 ng/cm^2/h
transdermal in-vitro skin flow ([1]; 10 h, diffusion cell 3): 80 ng/cm^2/h
transdermal in-vitro skin flow ([1]; 10 h, diffusion cell 4): 58 ng/cm^2/h
transdermal in-vitro skin flow, MW (mean value) ([1]; 10 h): 62 ng/cm^2/h
transdermal in-vitro skin flow ([1]; 18 h, diffusion cell 1): 77 ng/cm^2/h
transdermal in-vitro skin flow ([1]; 18 h, diffusion cell 2): 46 ng/cm^2/h
transdermal in-vitro skin flow ([1]; 18 h, diffusion cell 3): 110 ng/cm^2/h
transdermal in-vitro skin flow ([1]; 18 h, diffusion cell 4): 36 ng/cm^2/h
transdermal in-vitro skin flow, MW (mean value) ([1]; 18 h): 67 ng/cm^2/h
transdermal in-vitro skin flow ([1]; 26 h, diffusion cell 1): 120 ng/cm^2/h
transdermal in-vitro skin flow ([1]; 26 h, diffusion cell 2): 45 ng/cm^2/h
transdermal in-vitro skin flow ([1]; 26 h, diffusion cell 3): 111 ng/cm^2/h
transdermal in-vitro skin flow ([1]; 26 h, diffusion cell 4): 33 ng/cm^2/h
transdermal in-vitro skin flow, MW (mean value) ([1]; 26 h): 77 ng/cm^2/h
transdermal in-vitro skin flow ([1]; 34 h, diffusion cell 1): 50 ng/cm^2/h
transdermal in-vitro skin flow ([1]; 34 h, diffusion cell 2): 39 ng/cm^2/h
transdermal in-vitro skin flow ([1]; 34 h, diffusion cell 3): 83 ng/cm^2/h
transdermal in-vitro skin flow ([1]; 34 h, diffusion cell 4): 31 ng/cm^2/h
transdermal in-vitro skin flow, MW (mean value) ([1]; 34 h): 51 ng/cm^2/h
transdermal in-vitro skin flow ([1]; 42 h, diffusion cell 1): 47 ng/cm^2/h
transdermal in-vitro skin flow ([1]; 42 h, diffusion cell 2): 33 ng/cm^2/h
transdermal in-vitro skin flow ([1]; 42 h, diffusion cell 3): 74 ng/cm^2/h
transdermal in-vitro skin flow ([1]; 42 h, diffusion cell 4): 25 ng/cm^2/h
transdermal in-vitro skin flow, MW (mean value) ([1]; 42 h): 45 ng/cm^2/h
transdermal in-vitro skin flow ([1]; 50 h, diffusion cell 1): 37 ng/cm^2/h
transdermal in-vitro skin flow ([1]; 50 h, diffusion cell 2): 27 ng/cm^2/h
transdermal in-vitro skin flow ([1]; 50 h, diffusion cell 3): 44 ng/cm^2/h
transdermal in-vitro skin flow ([1]; 50 h, diffusion cell 4): 22 ng/cm^2/h
transdermal in-vitro skin flow, MW (mean value) ([1]; 50 h): 32 ng/cm^2/h
content up to which active ingredient is present in dissolved form in matrix-TDS [2]: about 1 % (m/m)
SMILES: C#C[C@]1(O)C=C[C@H]2[C@@H]3CCC4=CC(=O)CC[C@@H]4[C@H]3CC[C@@]21CC [gestodene]
solubility in the matrices used [3]: about 1%

skin flows for 1%-matrix-TDS, hydroxytrienedione versus gestodene ([1]; 1%-matrix-TDS): comparable
content up to which active ingredient is present in dissolved form in matrix-TDS [2]: about 20 % (m/m)
solubility in transdermal systems ([2]; matrix-transdermal systems based on polyacrylate adhesive): about 20 % by weight
SMILES: C[C@H](O)C(=O)[C@]12C=C[C@@]3(CC1)C1CCC4=CC(=O)CCC4=C1CC[C@]23C (stereo partly drawn) [hydroxytrienedione, (21S)-21-hydroxy-21-methyl-14,17-ethano-19-norpregna-4,9,15-triene-3,20-dione]
